Experiments:
[1] = oral bioavailability in the rat; settings: in vivo, read-out: absolute oral bioavailabilty
Protocol: The oral bioavailability of a model β-peptide according to the invention, β-HAla-β-HLys-β-HAla-β-HLeu-β-HLys-β-HAla-β-HLeu, TFA salt is determined in the rat using standard procedures. The absolute oral bioavailabilty is found to be about 1%. It is to be expected that greater oral bioavailability may be seeen with other compounds of the invention, having substituents selected to improve this property.

[2] = pharmacokinetics after intravenous administration to rats; settings: in vivo, rat
Protocol: The above compound is also administered intravenously to rats and found to have a relatively long terminal half life in blood of about 10 hours, with a systemic clearance of about 15 ml/min/kg and a volume of distribution of about 2 l/kg. It appears therefore that the relatively low oral bioavailability of the compound is due to low absorption from the gastrointestinal tract.

bioavailability [1]: ~1%
half-life ([2]; blood, read-out: terminal half life in blood (converted)): ~10 h
clearance ([2]; read-out: systemic clearance): ~15 mL/min/kg
Vd ([2]; read-out: volume of distribution): ~2 L/kg
SMILES: CC(C)C[C@@H](CC(=O)O)NC(=O)C[C@H](C)NC(=O)C[C@H](CCCCN)NC(=O)C[C@H](CC(C)C)NC(=O)C[C@H](C)NC(=O)C[C@H](CCCCN)NC(=O)C[C@H](C)N [β-HAla-β-HLys-β-HAla-β-HLeu-β-HLys-β-HAla-β-HLeu]

Source: patent US6617425B1, “Peptides” (Novartis AG, priority 1996, dated 2003)
